Measured values as given in patent publication US9403776B2, “Aryl- and heteroaryl-substituted tetrahydrobenzazepines and use thereof to block reuptake of norepinephrine, dopamine, and serotonin” (Albany Molecular Research, Inc., priority 2005, dated 2016).
Where a name gives a salt, the structure may show the parent alone.

Row | melting point [°C] | Compound
1 | 87 to 90 | CN1CCC(c2ccc(F)cc2)c2ccc(N3CCOCC3)cc2C1 (single isomer, unassigned; (+)) (as salt: maleate) [Example 85, (+)-4-(5-(4-fluorophenyl)-2-methyl-2,3,4,5-tetrahydro-1H-benzo[c]azepin-8-yl)morpholine]
2 | 173 to 176 | Cc1ccc(-c2ccc3c(c2)CN(C)CCC3c2ccc(F)cc2)nn1 (single isomer, unassigned; (+)) (as salt: maleate) [Example 89, (+)-5-(4-fluorophenyl)-2-methyl-8-(6-methylpyridazin-3-yl)-2,3,4,5-tetrahydro-1H-benzo[c]azepine]
3 | 119 to 121 | CN1CCC(c2ccccc2)c2ccc(N3CCN(c4ncccn4)CC3)cc2C1 (single isomer, unassigned; (+)) (as salt: tartrate) [Example 69, (+)-2-methyl-5-phenyl-8-(4-(pyrimidin-2-yl)piperazin-1-yl)-2,3,4,5-tetrahydro-1H-benzo[c]azepine]
4 | 142 to 144 | CN1CCC(c2ccccc2)c2ccc(-c3ccc4nccn4c3)cc2C1 (single isomer, unassigned; (+)) (as salt: tartrate) [Example 73, (+)-8-(imidazo[1,2-a]pyridin-6-yl)-2-methyl-5-phenyl-2,3,4,5-tetrahydro-1H-benzo[c]azepine]
5 | 112 to 115 | Cc1ccc(-c2ccc3c(c2)CN(C)CCC3c2ccc(C#N)c(F)c2)nn1 (single isomer, unassigned; (+)) (as salt: tartrate) [Example 92 (+), (+)-2-fluoro-4-(2-methyl-8-(6-methylpyridazin-3-yl)-2,3,4,5-tetrahydro-1H-benzo[c]azepin-5-yl)benzonitrile]
6 | 111 to 117 | CN1CCC(c2ccc3sccc3c2)c2ccc(-c3cncnc3)cc2C1.O=C(O)/C=C\C(=O)O (single isomer, unassigned; (+)) [Example 104, (+)-5-(benzo[b]thiophen-5-yl)-2-methyl-8-(pyrimidin-5-yl)-2,3,4,5-tetrahydro-1H-benzo[c]azepine, maleate salt]
7 | 102 to 108 | CN1CCC(c2ccc3sccc3c2)c2ccc(-c3cnccn3)cc2C1.O=C(O)/C=C\C(=O)O (single isomer, unassigned; (+)) [Example 105, (+)-5-(benzo[b]thiophen-5-yl)-2-methyl-8-(pyrazin-2-yl)-2,3,4,5-tetrahydro-1H-benzo[c]azepine, maleate salt]
8 | 105 to 109 | Cc1ccc(-c2ccc3c(c2)CN(C)CCC3c2ccc3sccc3c2)nn1.O=C(O)/C=C\C(=O)O (single isomer, unassigned; (+)) [Example 106, (+)-5-(benzo[b]thiophen-5-yl)-2-methyl-8-(6-methylpyridazin-3-yl)-2,3,4,5-tetrahydro-1H-benzo[c]azepine, maleate salt]
9 | 117 to 121 | CN1CCC(c2ccc3sccc3c2)c2ccc(-c3cccnn3)cc2C1.O=C(O)/C=C\C(=O)O (single isomer, unassigned; (+)) [Example 107, (+)-5-(benzo[b]thiophen-5-yl)-2-methyl-8-(pyridazin-3-yl)-2,3,4,5-tetrahydro-1H-benzo[c]azepine, maleate salt]
10 | 107 to 110 | Cc1ccc(-c2ccc3c(c2)CN(C)CCC3c2cccc(F)c2)nn1 (single isomer, unassigned; (-)) (as salt: citrate) [Example 84 (−), (−)-5-(3-fluorophenyl)-2-methyl-8-(6-methylpyridazin-3-yl)-2,3,4,5-tetrahydro-1H-benzo[c]azepine]
11 | 112 to 115 | CN1CCC(c2ccccc2)c2ccc(N3CCN(c4ccccn4)CC3)cc2C1 (single isomer, unassigned; (-)) (as salt: tartrate) [Example 68 (−), (−)-2-methyl-5-phenyl-8-(4-(pyridine-2-yl)piperazin-1-yl)-2,3,4,5-tetrahydro-1H-benzo[c]azepine]
12 | 122 to 127 | Cc1ccc(-c2ccc3c(c2)CN(C)CCC3c2ccc(C#N)c(F)c2)nn1 (single isomer, unassigned; (-)) (as salt: tartrate) [Example 92 (−), (−)-2-fluoro-4-(2-methyl-8-(6-methylpyridazin-3-yl)-2,3,4,5-tetrahydro-1H-benzo[c]azepin-5-yl)benzonitrile]

More lines, now with the values behind:

Row | Compound | melting point [°C]
13 | CCN1CCC(c2ccccc2)c2ccc(N3CCOCC3)cc2C1 (single isomer, unassigned; (+)) (as salt: maleate) [Example 57 (+), (+)-4-(2-ethyl-5-phenyl-2,3,4,5-tetrahydro-1H-benzo[c]azepin-8-yl)morpholine] | 64 to 66
14 | c1ccc(CN2CCC(c3ccccc3)c3ccc(N4CCOCC4)cc3C2)cc1 (single isomer, unassigned; (+)) (as salt: maleate) [Example 61, (+)-4-(2-benzyl-5-phenyl-2,3,4,5-tetrahydro-1H-benzo[c]azepin-8-yl)morpholine] | 108 to 110
15 | CN1CCC(c2ccccc2)c2ccc(C(C)(C)O)cc2C1 (single isomer, unassigned; (+)) (as salt: tartrate) [Example 18, (+)-2-(2-methyl-5-phenyl-2,3,4,5-tetrahydro-1H-benzo[c]azepin-8-yl)propan-2-ol] | 103 to 105
16 | CN1CCC(c2ccccc2)c2ccc(CN3CCOCC3)cc2C1 (single isomer, unassigned; (+)) (as salt: tartrate) [Example 22, (+)-4-((2-methyl-5-phenyl-2,3,4,5-tetrahydro-1H-benzo[c]azepin-8-yl)methyl)morpholine] | 124 to 127
17 | Cc1nc(-c2ccc3c(c2)CN(C)CCC3c2ccccc2)no1 (single isomer, unassigned; (+)) (as salt: tartrate) [Example 33, (+)-5-methyl-3-(2-methyl-5-phenyl-2,3,4,5-tetrahydro-1H-benzo[c]azepin-8-yl)-1,2,4-oxadiazole] | 102 to 104
18 | OCCN1CCC(c2ccccc2)c2ccc(N3CCOCC3)cc2C1 (single isomer, unassigned; (+)) (as salt: tartrate) [Example 59, (+)-2-(8-morpholino-5-phenyl-4,5-dihydro-1H-benzo[c]azepin-2(3H)-yl)ethanol] | 93 to 96
19 | FCCN1CCC(c2ccccc2)c2ccc(N3CCOCC3)cc2C1 (single isomer, unassigned; (+)) (as salt: tartrate) [Example 60, (+)-4-(2-(2-fluoroethyl)-5-phenyl-2,3,4,5-tetrahydro-1H-benzo[c]azepin-8-yl)morpholine] | 102 to 105
20 | COc1ccc2c(c1)CN(C)CCC2c1ccc(F)cc1 (single isomer, unassigned; (-)) (as salt: hydrochloride) [Example 4 (−), (−)-5-(4-fluorophenyl)-8-methoxy-2-methyl-2,3,4,5-tetrahydro-1H-benzo[c]azepine] | 246 to 248
21 | COc1ccc(C2CCN(C)Cc3cc(OC)ccc32)cc1 (single isomer, unassigned; (-)) (as salt: hydrochloride) [Example 6 (−), (−)-5-(4-methoxyphenyl)-8-methoxy-2-methyl-2,3,4,5-tetrahydro-1H-benzo[c]azepine] | 193 to 194
22 | COc1ccc2c(c1)CN(C)CCC2c1ccc(Cl)cc1 (single isomer, unassigned; (-)) (as salt: hydrochloride) [Example 8 (−), (−)-5-(4-chlorophenyl)-8-methoxy-2-methyl-2,3,4,5-tetrahydro-1H-benzo[c]azepine] | 210 to 211
23 | CN1CCC(c2ccc(F)cc2)c2ccc(O)cc2C1 (single isomer, unassigned; (-)) (as salt: hydrochloride) [Example 14, (−)-5-(4-fluorophenyl)-2-methyl-2,3,4,5-tetrahydro-1H-benzo[c]azepin-8-ol] | 159 to 161
24 | CN1CCC(c2ccc(Cl)cc2)c2ccc(-c3cnccn3)cc2C1 (single isomer, unassigned; (-)) (as salt: maleate) [Example 41 (−), (−)-5-(4-chlorophenyl)-2-methyl-8-(pyrazin-2-yl)-2,3,4,5-tetrahydro-1H-benzo[c]azepine] | 82 to 84
25 | Cc1noc(C)c1-c1ccc2c(c1)CN(C)CCC2c1ccc(Cl)cc1 (single isomer, unassigned; (-)) (as salt: maleate) [Example 42, (−)-5-(4-chlorophenyl)-8-(3,5-dimethylisoxazol-4-yl)-2-methyl-2,3,4,5-tetrahydro-1H-benzo[c]azepine] | 66 to 68
26 | CN1CCC(c2ccc(Cl)cc2)c2ccc(-c3ccc(N(C)C)nn3)cc2C1 (single isomer, unassigned; (-)) (as salt: maleate) [Example 46, (−)-{6-[5-(4-chlorophenyl)-2-methyl-2,3,4,5-tetrahydro-1H-benzo[c]azepine-8-yl]-pyridazin-3-yl}-dimethylamine] | 109 to 110
27 | CN1CCC(c2ccc(Cl)cc2)c2ccc(N3CCOCC3)cc2C1 (single isomer, unassigned; (-)) (as salt: maleate) [Example 47, (−)-4-(5-(4-chlorophenyl)-2-methyl-2,3,4,5-tetrahydro-1H-benzo[c]azepin-8-yl)morpholine] | 99 to 100
28 | COc1ccc2c(c1)CN(C)CCC2c1ccc2sccc2c1 (single isomer, unassigned; (-)) (as salt: maleate) [Example 52 (−), (−)-5-benzo[b]thiophen-5-yl-8-methoxy-2-methyl-2,3,4,5-tetrahydro-1H-benzo[c]azepine] | 92 to 95
29 | CCN1CCC(c2ccccc2)c2ccc(N3CCOCC3)cc2C1 (single isomer, unassigned; (-)) (as salt: maleate) [Example 57 (−), (−)-4-(2-ethyl-5-phenyl-2,3,4,5-tetrahydro-1H-benzo[c]azepin-8-yl)morpholine] | 68 to 72
30 | CC(C)N1CCC(c2ccccc2)c2ccc(N3CCOCC3)cc2C1 (single isomer, unassigned; (-)) (as salt: maleate) [Example 58 (−), (−)-4-(2-isopropyl-5-phenyl-2,3,4,5-tetrahydro-1H-benzo[c]azepin-8-yl)morpholine] | 195 to 197
